Measurements: patent US12059425B2, “Heterocyclic compounds and uses thereof” (Kumquat Biosciences Inc., priority 2022, dated 2024)

Columns and labels:
K-Ras G12D = target: T1, K-Ras G12D (Homo sapiens, UniProt P01116, G12D); assay: PPI-HTRF assay, K-Ras G12D / SOS1 interaction; assay type: biochemical; conditions: HTRF, K-Ras G12D; read-out: PPI-HTRF-5 nM (K-Ras G12D IC50)
T1 construct: made in house; host or cells: E. coli, e.g. BL21 (DE3)
In short: (§1)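 Compounds were tested in duplicate (10 μM to 0.01 μM) for disruption of Ras–SOS1 binding, measured as FRET between anti-GST-Eu on GST-K-Ras and anti-6His-XL665 on His-hSOS1. The buffer was HEPES pH 7.4 with NaCl, DTT, BSA and Igepal. Emission ratios (665/620 nm, excitation 337 nm) read after ≥10 min gave IC50 values.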

K-Ras G12S = target: T2, K-Ras G12S (Homo sapiens, UniProt P01116, G12S); assay: PPI-HTRF assay, K-Ras G12S / SOS1 interaction; assay type: biochemical; conditions: read-out: PPI-HTRF-5 nM (K-Ras G12S IC50)
T2 construct: made in house; host or cells: E. coli, e.g. BL21 (DE3)
In short: as §1

K-Ras G12V = target: T3, K-Ras G12V (Homo sapiens, UniProt P01116, G12V); assay: PPI-HTRF assay, K-Ras G12V / SOS1 interaction; assay type: biochemical; conditions: HTRF, K-Ras G12V; read-out: PPI-HTRF-5 nM (K-Ras G12V IC50)
T3 construct: made in house; host or cells: E. coli, e.g. BL21 (DE3)
In short: as §1

wildtype K-Ras = target: T4, wildtype K-Ras (Homo sapiens, UniProt P01116); assay: PPI-HTRF assay, wildtype K-Ras / SOS1 interaction; assay type: biochemical; conditions: HTRF, K-Ras wt; read-out: PPI-HTRF-5 nM (K-Ras wt IC50)
T4 construct: made in house; host or cells: E. coli, e.g. BL21 (DE3)
In short: as §1

GP2D cells = assay: Ras cellular assay, cell proliferation GP2D; assay type: cell-based
In short: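 Growth inhibition read by CellTiter-Glo luminescence roughly 5 days after compound addition, which followed overnight plating of G12D-mutant GP2D cells (e.g., 800 per well). Compounds were tested as a serial dilution (e.g., 9 points, 3-fold), with IC50 fitted by four-parameter model.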

A549 cells = assay: Ras cellular assay, cell proliferation A549; assay type: cell-based; conditions: Homo sapiens
Method: (§2) For example, this assay can be also used to assess selective growth inhibition of a mutant Ras protein relative to a wildtype, or relative to a different mutant Ras protein.
A549 (ATCC CRL-185) and LS123 (ATCC CRL-255) cell lines comprise a G12S mutation and can be used to assess Ras cellular signaling in vitro, e.g., in response to treatment with a compound described herein. A549 culture medium is prepared with RPMI-1640 and 10% heat-inactivated FBS. LS123 culture medium is prepared with RPMI-1640 and 10% heat-inactivated FBS. A CellTiter-Glo (CTG) luminescent based assay (Promega) is used to assess growth of the cells, as a measurement of the ability of the compounds herein to inhibit Ras signaling in the cells. The cells (e.g., 800 per well) are seeded in their respective culture medium in standard tissue culture-treated 384-well format plates (Falcon #08-772-116) or ultra-low attachment surface 384-well format plates (S-Bio #MS-9384WZ). The day after plating, cells are treated with a dilution series (e.g., a 10 point, 3-fold dilution series) of the compounds herein (e.g., approximately 40 μL final volume per well). Cell viability can be monitored (e.g., approximately 6 days later) according to the manufacturer's recommended instructions, where CellTiter-Glo reagent is added (e.g., approximately 10 μL), vigorously mixed, covered, and placed on a plate shaker (e.g., approximately for 20 min) to ensure sufficient cell lysis prior to assessment of luminescent signal. The IC50 values are determined using the four parameter fit. The resulting IC50 value is a measurement of the ability of the test compound to reduce cell growth of Ras-driven cells (e.g., tumor cell lines) in vitro and/or in vivo.

SW620 cells = assay: Ras cellular assay, cell proliferation SW620; assay type: cell-based; conditions: Homo sapiens, SW-620
Source text: as §2

Measured: IC50

T2 sequence (P01116 1-188 isoform P01116-2 G12S): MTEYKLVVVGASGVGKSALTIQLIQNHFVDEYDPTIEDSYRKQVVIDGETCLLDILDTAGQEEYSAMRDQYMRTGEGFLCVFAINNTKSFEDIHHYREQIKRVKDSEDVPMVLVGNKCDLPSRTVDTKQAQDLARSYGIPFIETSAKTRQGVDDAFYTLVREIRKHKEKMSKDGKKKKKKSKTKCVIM
T3 sequence (P01116 1-188 isoform P01116-2 G12V): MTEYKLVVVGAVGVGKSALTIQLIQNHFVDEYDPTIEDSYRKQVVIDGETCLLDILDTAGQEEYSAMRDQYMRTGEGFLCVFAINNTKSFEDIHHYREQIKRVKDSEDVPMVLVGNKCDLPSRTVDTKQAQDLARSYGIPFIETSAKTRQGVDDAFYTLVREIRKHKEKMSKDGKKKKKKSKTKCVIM
T4 sequence (P01116 1-188 isoform P01116-2): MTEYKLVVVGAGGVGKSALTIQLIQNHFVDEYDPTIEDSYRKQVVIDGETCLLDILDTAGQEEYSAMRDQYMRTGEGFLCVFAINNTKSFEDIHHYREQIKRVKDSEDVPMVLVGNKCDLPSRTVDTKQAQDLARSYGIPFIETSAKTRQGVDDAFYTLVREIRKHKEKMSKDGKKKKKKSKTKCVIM
T1 sequence (P01116 1-188 isoform P01116-2 G12D): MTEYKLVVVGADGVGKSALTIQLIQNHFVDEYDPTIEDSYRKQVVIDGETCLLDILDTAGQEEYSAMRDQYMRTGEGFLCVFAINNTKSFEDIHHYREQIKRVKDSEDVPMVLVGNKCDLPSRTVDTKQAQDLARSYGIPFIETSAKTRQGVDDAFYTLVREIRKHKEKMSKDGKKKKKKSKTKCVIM

N#Cc1c(N)sc2c(F)ccc(-c3c(Cl)c4c5c(nc(OC[C@@]67CCCN6C[C@H](F)C7)nc5c3F)N(CC(F)F)C3COCC3CO4)c12 (stereo partly drawn) [compound 188, 2-amino-4-(6-chloro-12-(2,2-difluoroethyl)-4-fluoro-2-(((2R,7aS)-2-fluorotetrahydro-1H-pyrrolizin-7a(5H)-yl)methoxy)-8a,9,11a,12-tetrahydro-8H,11H-furo[3′,4′:6,7][1,5]oxazocino[4,3,2-de]quinazolin-5-yl)-7-fluorobenzo[b]thiophene-3-carbonitrile]
< 5 µM: all assays above

N#Cc1c(N)sc2c(F)ccc(-c3c(Cl)c4c5c(nc(OC[C@@]67CCCN6C[C@H](F)C7)nc5c3F)N3[C@H](CO4)C[C@@H]4OCC[C@@H]43)c12 [compound 133, 2-amino-4-((5aS,6aS,9aS)-3-chloro-1-fluoro-12-(((2R,7aS)-2-fluorotetrahydro-1H-pyrrolizin-7a(5H)-yl)methoxy)-5a,6,6a,8,9,9a-hexahydro-5H-furo[2″,3″:4′,5′]pyrrolo[2′,1′:3,4][1,4]oxazepino[5,6,7-de]quinazolin-2-yl)-7-fluorobenzo[b]thiophene-3-carbonitrile]
< 5 µM: all assays above

N#Cc1c(N)sc2c(F)ccc(-c3c(Cl)c4c5c(nc(OC[C@@]67CCCN6C[C@H](F)C7)nc5c3F)N3CC(F)(F)C[C@H]3CO4)c12 [compound 181]
< 5 µM: all assays above

N#Cc1c(N)sc2c(F)ccc(-c3c(Cl)c4c5c(nc(OC[C@@]67CCCN6C[C@H](F)C7)nc5c3F)N3CCC(C#N)CC3CO4)c12 (stereo partly drawn) [compound 205, 5-(2-amino-3-cyano-7-fluorobenzo[b]thiophen-4-yl)-6-chloro-4-fluoro-2-(((2R,7aS)-2-fluorotetrahydro-1H-pyrrolizin-7a(5H)-yl)methoxy)-8,8a,9,10,11,12-hexahydropyrido[2′,1′:3,4][1,4]oxazepino [5,6,7-de]quinazoline-10-carbonitrile]
< 5 µM: all assays above

N#Cc1c(N)sc2c(F)ccc(-c3c(Cl)c4c5c(nc(OC[C@@]67CCCN6C[C@H](F)C7)nc5c3F)N3CC[C@@H]3CO4)c12 [compound 139, 2-amino-4-((11aR)-9-chloro-7-fluoro-5-(((2R,7aS)-2-fluorotetrahydro-1H-pyrrolizin-7a(5H)-yl)methoxy)-1,2,11,11a-tetrahydroazeto[2′,1′:3,4][1,4]oxazepino [5,6,7-de]quinazolin-8-yl)-7-fluorobenzo[b]thiophene-3-carbonitrile]
> 5 µM: A549 cells
< 5 µM: all other assays above

N#Cc1c(N)sc2c(F)ccc(-c3c(Cl)c4c5c(nc(OC[C@@]67CCCN6C[C@H](F)C7)nc5c3F)N(CC(F)F)C3CNCC3O4)c12 (stereo partly drawn) [compound 175, 2-amino-4-(6-chloro-11-(2,2-difluoroethyl)-4-fluoro-2-(((2R,7aS)-2-fluorotetrahydro-1H-pyrrolizin-7a(5H)-yl)methoxy)-7a,8,9,10,10a,11-hexahydropyrrolo[3′,4′:2,3][1,4]oxazepino [5,6,7-de]quinazolin-5-yl)-7-fluorobenzo[b]thiophene-3-carbonitrile]
< 5 µM: all assays above

N#Cc1c(N)sc2c(F)ccc(-c3c(Cl)c4c5c(nc(OC[C@@]67CCCN6C[C@H](F)C7)nc5c3F)N3CCC[C@H]3CCO4)c12 [compound 115, 2-amino-4-((13aS)-10-chloro-8-fluoro-6-(((2R,7aS)-2-fluorotetrahydro-1H-pyrrolizin-7a(5H)-yl)methoxy)-1,2,3,12,13,13a-hexahydropyrrolo[1′,2′:5,6][1,5]oxazocino [4,3,2-de]quinazolin-9-yl)-7-fluorobenzo[b]thiophene-3-carbonitrile]
< 5 µM: all assays above

COC[C@H]1C[C@H]2COc3c(Cl)c(-c4ccc(F)c5sc(N)c(C#N)c45)c(F)c4nc(OC[C@@]56CCCN5C[C@H](F)C6)nc(c34)N21 [compound 173, 2-amino-4-(9-chloro-7-fluoro-5-(((2R,7aS)-2-fluorotetrahydro-1H-pyrrolizin-7a(5H)-yl)methoxy)-2-(methoxymethyl)-1,2,11,11a-tetrahydroazeto[2′,1′:3,4][1,4]-oxazepino[5,6,7-de]quinazolin-8-yl)-7-fluorobenzo[b]thiophene-3-carbonitrile]
< 5 µM: all assays above

N#Cc1c(N)sc2c(F)ccc(-c3c(Cl)c4c5c(nc(OC[C@@]67CCCN6C[C@H](F)C7)nc5c3F)N3CCN(C(=O)C(F)F)CCC3CO4)c12 (stereo partly drawn) [compound 149, 2-amino-4-(6-chloro-11-(2,2-difluoroacetyl)-4-fluoro-2-(((2R,7aS)-2-fluorotetrahydro-1H-pyrrolizin-7a(5H)-yl)methoxy)-8a,9,10,11,12,13-hexahydro-8H-[1,4]diazepino[7′,1′:3,4][1,4]oxazepino [5,6,7-de]quinazolin-5-yl)-7-fluorobenzo[b]thiophene-3-carbonitrile]
< 5 µM: all assays above

CN1c2nc(OC[C@@]34CCCN3C[C@H](F)C4)nc3c(F)c(-c4ccc(F)c5sc(N)c(C#N)c45)c(Cl)c(c23)OCC2CN(C(=O)C(F)F)CC21 (stereo partly drawn) [compound 120, 2-amino-4-(6-chloro-10-(2,2-difluoroacetyl)-4-fluoro-2-(((2R,7aS)-2-fluorotetrahydro-1H-pyrrolizin-7a(5H)-yl)methoxy)-12-methyl-8a,9,10,11,11a,12-hexahydro-8H-pyrrolo[3′,4′:6,7][1,5]oxazocino[4,3,2-de]quinazolin-5-yl)-7-fluorobenzo[b]thiophene-3-carbonitrile]
> 5 µM: A549 cells
< 5 µM: all other assays above

N#Cc1c(N)sc2c(F)ccc(-c3c(Cl)c4c5c(nc(OCC67CCCN6C[C@H](F)C7)nc5c3F)N3CC(C#N)CCC3CO4)c12 (stereo partly drawn) [compound 150, 5-(2-amino-3-cyano-7-fluorobenzo[b]thiophen-4-yl)-6-chloro-4-fluoro-2-(((2R)-2-fluorotetrahydro-1H-pyrrolizin-7a(5H)-yl)methoxy)-8,8a,9,10,11,12-hexahydropyrido[2′,1′:3,4][1,4]oxazepino [5,6,7-de]quinazoline-11-carbonitrile]
< 5 µM: all assays above
